Test system: acute liver injury induced by carbon tetrachloride
Assay: Protective effect on acute liver injury induced by carbon tetrachloride (mice, oral): plasma GPT activity and BSP retention
Type: in vivo, mice (ddY, male)
Details: 6 h before CCl4 (0.05 ml/kg p.o.); for GPT activity: plasma; for Retained BSP: plasma 30 min after BSP 75 mg/kg i.v.
Procedure: 1. Protective Effect on Acute Liver Injury Induced by Carbon Tetrachloride
A test compound was dissolved or suspended in olive oil and administered orally to mice (ddY mice, .male., 23±2 g, n=5). After 6 hours, carbon tetrachloride (0.05 ml/kg) was administered orally. 24 Hours after the administration of carbon tetrachloride, BSP (sodium sulfobromophthalein; 75 mg/kg) was administered intravenously. Thirty minutes later, the cardiac blood was collected, and GPT (glutamic-pyruvic transaminase) activity and the retention rate of BSP in the plasma were measured.

Row | Structure (SMILES) | GPT activity (1 mg/kg) [Karmen units] | Retained BSP (1 mg/kg) [µg/mL] | GPT activity (5 mg/kg) [Karmen units] | Retained BSP (5 mg/kg) [µg/mL]
1 | [O-][Cl+3]([O-])([O-])[O-].c1csc(=[N+]2CCOCC2)s1 [Compound No. 26, 4-(1,3-dithiol-2-ylidene)morpholinium perchlorate] | 483 ± 178 | 21.6 ± 2.7 | 113 ± 32 | 13.8 ± 2.5
2 | C=CC[N+](CC=C)=c1sccs1.[O-][Cl+3]([O-])([O-])[O-] [Compound No. 12, N-(1,3-dithiol-2-ylidene)-N,N-diallylammonium perchlorate] | 5438 ± 401 | 109.3 ± 14.8 | 1241 ± 103 | 25.4 ± 5.0
3 | CC1CC(C)C[N+](=c2sccs2)C1.[I-] (stereo not shown) [Compound No. 67, 1-(1,3-dithiol-2-ylidene)-3,5-dimethylpiperidinium iodide] | 2718 ± 431 | 111.4 ± 17.1 | 372 ± 27 | 21.3 ± 4.0
4 | NC(=O)C1CC[N+](=c2sccs2)CC1.[I-] (stereo not shown) [Compound No. 58, 1-(1,3-dithiol-2-ylidene)-4-carbamoylpiperidinium iodide] | 3266 ± 245 | 98.1 ± 21.0 | 1151 ± 181 | 41.5 ± 7.1
5 | N#CC1CC[N+](=c2sccs2)CC1.[O-][Cl+3]([O-])([O-])[O-] (stereo not shown) [Compound No. 59, 1-(1,3-dithiol-2-ylidene)-4-cyanopiperidinium perchlorate] | 2991 ± 382 | 110.1 ± 27.3 | 763 ± 118 | 49.1 ± 8.1
6 | NC(=O)C1CCC[N+]1=c1sccs1.[I-] (stereo not shown) [Compound No. 44, 1-(1,3-dithiol-2-ylidene)-2-carbamoylpyrrolidinium iodide] | 6311 ± 867 | 134.7 ± 21.7 | 5213 ± 716 | 119.4 ± 11.8
7 | CC1CCC[N+](=c2sccs2)C1.[O-][Cl+3]([O-])([O-])[O-] (stereo not shown) [Compound No. 52, 1-(1,3-dithiol-2-ylidene)-3-methylpiperidinium perchlorate] | 2391 ± 325 | 87.1 ± 13.4 | 138 ± 18 | 17.8 ± 4.9
8 | CCOC(=O)C[N+](C)=c1sccs1.[O-][Cl+3]([O-])([O-])[O-] [Compound No. 1, N-(1,3-dithiol-2-ylidene)-N-methyl-N-ethoxycarbonylmethylammonium perchlorate] | 3280 ± 399 | 53.2 ± 11.4 | 183 ± 74 | 18.4 ± 1.3
9 | C[N+](=c1sccs1)C1CCCCC1.[O-][Cl+3]([O-])([O-])[O-] [Compound No. 7, N-(1,3-dithiol-2-ylidene)-N-methyl-N-cyclohexylammonium perchlorate] | 4920 ± 670 | 120.1 ± 17.1 | 1400 ± 77 | 57.1 ± 5.1
10 | OC1CC[N+](=c2sccs2)CC1.[O-][Cl+3]([O-])([O-])[O-] (stereo not shown) [Compound No. 60, 1-(1,3-dithiol-2-ylidene)-4-hydroxypiperidinium perchlorate] | 1321 ± 197 | 63.4 ± 10.9 | 131 ± 10 | 19.1 ± 2.1
11 | C[N+](CCC#N)=c1sccs1.[I-] [Compound No. 4, N-(1,3-dithiol-2-ylidene)-N-methyl-N-(2-cyanoethyl)ammonium iodide] | 2535 ± 158 | 42.6 ± 2.3 | 543 ± 92 | 29.4 ± 11.1
12 | Cc1cccc([N+](C)=c2sccs2)c1.[O-][Cl+3]([O-])([O-])[O-] [Compound No. 9, N-(1,3-dithiol-2-ylidene)-N-methyl-N-(m-tolyl)ammonium perchlorate] | 2250 ± 325 | 73.1 ± 14.7 | 191 ± 71 | 21.4 ± 2.1
13 | CC(C)CC(C(=O)OC(C)C)[N+](C)=c1sccs1.[O-][Cl+3]([O-])([O-])[O-] (stereo not shown) [Compound No. 18, N-(1,3-dithiol-2-ylidene)-N-methyl-N-(3-methyl-1-isopropoxycarbonylbutyl)ammonium perchlorate] | 4100 ± 615 | 106.9 ± 17.5 | 3250 ± 365 | 44.1 ± 5.2
14 | C[N+](c1ccccc1)=c1sccs1.[O-][Cl+3]([O-])([O-])[O-] [Compound No. 8, N-(1,3-dithiol-2-ylidene)-N-methyl-N-phenylammonium perchlorate] | 2394 ± 193 | 39.3 ± 10.7 | 117 ± 28 | 11.6 ± 1.5
15 | COC(=O)CC(C(=O)OC)[N+](C)=c1sccs1.[O-][Cl+3]([O-])([O-])[O-] (stereo not shown) [Compound No. 17, N-(1,3-dithiol-2-ylidene)-N-methyl-N-(1,2-dimethoxycarbonylethyl)ammonium perchlorate] | 4760 ± 298 | 135 ± 8.9 | 3883 ± 324 | 86 ± 11.1
16 | [O-][Cl+3]([O-])([O-])[O-].c1csc(=[N+]2CCCC2)s1 [Compound No. 35, 1-(1,3-dithiol-2-ylidene)pyrrolidinium perchlorate] | 4239 ± 816 | 101.2 ± 22.6 | 2472 ± 820 | 35.8 ± 12.4
17 | CCOC(=O)C1CCC[N+]1=c1sccs1.[Cl-] (stereo not shown) [Compound No. 42, 1-(1,3-dithiol-2-ylidene)-2-ethoxycarbonyl pyrrolidinium chloride] | 1673 ± 214 | 53.1 ± 6.3 | 231 ± 43 | 21.4 ± 3.5
18 | CCCCCCC1CCC[N+]1=c1sccs1.[O-][Cl+3]([O-])([O-])[O-] (stereo not shown) [Compound No. 45, 1-(1,3-dithiol-2-ylidene)-2-(n-hexyl)pyrrolidinium perchlorate] | 4264 ± 521 | 110 ± 20.5 | 1072 ± 282 | 76 ± 6.3
19 | [O-][Cl+3]([O-])([O-])[O-].c1ccc(C[N+](Cc2ccccc2)=c2sccs2)cc1 [Compound No. 16, N-(1,3-dithiol-2-ylidene)-N,N-dibenzylammonium perchlorate] | 4121 ± 311 | 107.4 ± 13.9 | 1017 ± 37 | 21.8 ± 6.0
20 | [O-][Cl+3]([O-])([O-])[O-].c1ccc(C2CCC[N+]2=c2sccs2)cc1 (stereo not shown) [Compound No. 46, 1-(1,3-dithiol-2-ylidene)-2-phenylpyrrolidinium perchlorate] | 3978 ± 627 | 101 ± 17.4 | 1040 ± 121 | 69 ± 7.1
21 | O=C(O)C1CC[N+](=c2sccs2)CC1.[O-][Cl+3]([O-])([O-])[O-] (stereo not shown) [Compound No. 57, 1-(1,3-dithiol-2-ylidene)-4-carboxypiperidinium perchlorate] | 3735 ± 374 | 101.1 ± 20.0 | 2922 ± 247 | 90.1 ± 14.7
22 | C[N+](Cc1ccccc1)=c1sccs1.[O-][Cl+3]([O-])([O-])[O-] [Compound No. 10, N-(1,3-dithiol-2-ylidene)-N-methyl-N-benzylammonium perchlorate] | 1865 ± 106 | 29.5 ± 6.0 | 108 ± 27 | 16.6 ± 1.6
23 | CNC(=O)C[N+](C)=c1sccs1 [Compound No. 3, N-(1,3-dithiol-2-ylidene)-N-methyl-N-(N'-methylcarbamoylmethyl)ammonium perchlorate] | 3740 ± 430 | 67.1 ± 14.3 | 541 ± 101 | 27.1 ± 10.1
24 | CC1CC[N+](=c2sccs2)CC1.[O-][Cl+3]([O-])([O-])[O-] (stereo not shown) [Compound No. 53, 1-(1,3-dithiol-2-ylidene)-4-methylpiperidinium perchlorate] | 1843 ± 162 | 70.0 ± 19.3 | 193 ± 81 | 16.9 ± 3.1
25 | [O-][Cl+3]([O-])([O-])[O-].c1csc(=[N+]2CCCCC2)s1 [Compound No. 34, 1-(1,3-dithiol-2-ylidene)piperidinium perchlorate] | 512 ± 205 | 26.5 ± 8.0 | 116 ± 39 | 15.6 ± 3.0

— patent US4737494A, “1,3-dithiole derivatives and pharmaceutical compositions” (priority 1984, dated 1988)
